According to patent US6294526A, “Use of flavone derivatives for induction of β-lactam-sensitivity of MRSA” (priority 1998, dated 2001):
In brackets after ≈: the same amount, converted by molar mass. Like-named read-outs stand apart in the source and are kept apart here.

Legend:
MRSA No. 5 [1] = experiment: effect of flavone on antibacterial activity of antibiotics against MRSA No. 5 in bouillon (broth microdilution); type: cell-based, methicillin-resistant Staphylococcus aureus; settings: for MIC: Staphylococcus aureus, MRSA, 20 h, read-out: MIC
Method: Alternatively, the screening of the present invention may be carried out according to the broth microdilution method designated by the Japan Society of Chemotherapy (Chemotherapy 38(1), 102-105 (1990)). Muellar-Hinton broth is used as a culture medium for the sensitivity test, and 50 mg/ml of calcium(Ca) ion, 25 mg/ml of magnesium(Mg) ion, and 2% sodium chloride (NaCl) are added thereto. An inoculating bacteria solution may be prepared by culturing bacteria to be tested in Mueller-Hinton broth at 37° C. for 20 hours and diluting with Mueller-Hinton broth to 10^5 CFU/ml final concentration of inoculating bacteria. Diluted β-lactam solution is prepared by two times serial dilution series. 10 μl of the diluted β-lactam solution and 10 μl of a predetermined concentration of a sample of bacteria to be tested are added to mix with 80 μl of the culture medium for the sensitivity test. To the resultant plate culture medium for sensitivity test, the inoculating bacteria are added and culturing is carried out for 20 hours at 37° C. and then assessment for a minimum inhibition concentration (MIC) is carried out. A minimum inhibition concentration means the minimum concentration of β-lactam at which growth of bacteria is not recognized by the naked eye.
(G) Antibacterial activity of 6 β-lactams, that is, cephalothin, cefuroxime, cefotaxime, cefoxitin, streptomycin and vancomycin, against MRSA in the presence of 0.5 mM flavone was studied in bouillon.
Muellar-Hinton broth was used as a culture medium for the sensitivity test, and 50 mg/ml of calcium (Ca) ion, 25 mg/ml of maqnesium (Mg) ion, 2% sodium chloride (NaCl) were added thereto. An inoculating bacteria solution was prepared by culturing bacteria to be tested with Mueller-Hinton broth at 37° C. for 20 hours and diluting with Mueller-Hinton broth to 10^5 CFU/ml final concentration of inoculating bacteria. Diluted β-lactam solutions were prepared in two times serial dilutions starting from 10 mM. Ten microliters of the diluted β-lactam solution and 10 μl of 5 mM of flavone were mixed with 80 μl of the culture medium for the sensitivity test in a microplate having U-shaped wells and samples of bacteria to be tested were added thereto. The mixture was cultured 20 hours at 37° C. and then assessed for minimum inhibition concentration (MIC). Minimum inhibition concentration means minimum concentration of a β-lactum at which growth of bacteria is inhibited to the extent that bacteria is not recognized by the naked eye.

MRSA [2] = experiment: antibacterial activity of antibiotics alone and in the presence of apigenin (4 μg/ml), MRSA; type: cell-based, methicillin-resistant Staphylococcus aureus; settings: for MIC50: MRSA
Method: (§1) The screening of the present invention may be carried out according to the agar plate dilution method designated by the Japan Society of Chemotherapy (Chemotherapy 29(1), 76-79 (1981)). Mueller-Hinton agar base semi-synthetic medium may be used for a plate culture medium for a sensitivity test together with an inoculating bacteria solution which may be prepared by culturing bacteria to be tested at 37° C. for 20 hours diluted with 8.5% by isotonic sodium chloride solution to 10^6 CFU/ml. Diluted β-lactam solutions are prepared by two times serial dilution. 1 ml of the diluted β-lactam solution and 1 ml of a predetermined concentration of a sample to be tested are added to 8 ml of the plate culture medium for a sensitivity test. To the resultant plate culture medium for sensitivity test, the bacteria are inoculated using a microplanter (SAKUMASEISAKUSYO Co.), cultured for 20 hours at 37° C. followed by assessing for a minimum inhibition concentration (MIC).
(D) Then use of 4 μg/ml of apigenin and other antibiotics at the same time was studied. The antibiotics are penicillin , ampicillin, cephalothin, cefoxitin, cefuroxime, cefotaxime, vancomycin, streptomycin, chloramphenicol, kanamycin, erythromycin, nalixic acid and tetracycline.

MSSA = experiment: antibacterial activity of methicillin in the presence of flavone derivatives, MSSA; type: cell-based, Methicillin-sensitive Staphylooccus aureus; settings: Staphylococcus aureus, 20 h; methicillin alone; MSSA (7 strains)
Method: as §1, with “To the resultant plate culture medium for sensitivity test, the bacteria are inoculated using a microplanter (SAKUMASEISAKUSYO Co.), cultured for 20 hours at 37° C. followed by assessing for a minimum inhibition concentration (MIC).” left out
(§2) Mueller-Hinton agar base semi-synthetic medium was used as a plate culture medium for the sensitivity test, and an inoculating bacteria solution was prepared by culturing bacteria to be tested at 37° C. for 20 hours and diluting with 8.5% by weight isotonic sodium chloride solution to a final concentration of 10^6 CFU/ml. […] To the resultant plate culture medium for the sensitivity test, the inoculating bacteria were inoculated using a microplanter (SAKUMASEISAKUSYO Co.), cultured for 20 hours at 37° C. and then minimum inhibition concentration (MIC) was assessed.

MRSA [3] = experiment: antibacterial activity of methicillin in the presence of flavone derivatives, MRSA; type: cell-based, methicillin-resistant Staphylococcus aureus
Method: as §1, with “To the resultant plate culture medium for sensitivity test, the bacteria are inoculated using a microplanter (SAKUMASEISAKUSYO Co.), cultured for 20 hours at 37° C. followed by assessing for a minimum inhibition concentration (MIC).” left out
as §2

MRSA No. 5 [4] = experiment: effect of flavone on antibacterial activity of antibiotics against MRSA No. 5 in bouillon (broth microdilution); type: cell-based, methicillin-resistant Staphylococcus aureus; settings: for MIC: Staphylococcus aureus, MRSA, 20 h, read-out: antibacterial activity of methicillin against MRSA No. 5

- MIC (MRSA No. 5 [1]; Concentration of flavone 0 mM): 1000 µM (≈ 380 µg/mL)
- MIC (MRSA No. 5 [1]; Concentration of flavone 0.5 mM): 15.6 µM (≈ 5.93 µg/mL)
- MIC50 (MRSA [2]; Antibiotics alone): > 250 µg/mL
- MIC50 (MRSA [2]; Antibiotics alone, listed as methicillin): 1000 µg/mL
- MIC50 (MRSA [2]; Staphylococcus aureus, 20 h, antibiotic with Apigenin (4 μg/ml), read-out: MIC50): 15.6 µg/mL
- MIC (MSSA): 0.98 to 2 µg/mL
- MIC50 (MSSA): 2 µg/mL
- MIC50 (MRSA [3]; Staphylococcus aureus, 20 h, methicillin alone, MRSA (20 strains)): > 250 µg/mL
- MIC (MRSA No. 5 [4]; Control (no flavone)): > 1000 µM
- MIC (MRSA No. 5 [4]; flavone 0.11 mM (25 μg/ml)): 1000 µM (≈ 380 µg/mL)
- MIC (MRSA No. 5 [4]; flavone 0.2 mM): 31.2 µM (≈ 11.9 µg/mL)
- MIC (MRSA No. 5 [4]; flavone 0.23 mM (50 μg/ml)): 31.2 µM (≈ 11.9 µg/mL)
- MIC (MRSA No. 5 [4]; flavone 0.5 mM): 15.6 µM (≈ 5.93 µg/mL)
SMILES: COc1cccc(OC)c1C(=O)N[C@@H]1C(=O)N2[C@@H]1SC(C)(C)[C@@H]2C(=O)O [Methicillin, methicillin]
- inhibitory effect on resistance of MRSA No.5 (in words) (MRSA No. 5 [1]; in the presence of flavone 0.5 mM): showed inhibitory effect on resistance of MRSA No.5
- times as potent as methicillin alone (MRSA [2]; MIC50, methicillin plus 4 μg/ml apigenin vs methicillin alone): about 700 times
- inhibition of β-lactam resistant MRSA / improvement of antibacterial effect with apigenin (in words) (MRSA [2]; apigenin 4 μg/ml or less than its MIC): inhibited β-lactam resistant MRSA
- antibacterial activity of methicillin on MRSA No.5 (in words) (MRSA [3]; under the presence of flavone): strong on MRSA No.5
- antibacterial activity of methicillin against MRSA (in words) (MRSA No. 5 [4]; flavone 0.2 mM): prominently shown
- antibacterial activity of methicillin against MRSA (in words) (MRSA No. 5 [4]; in proportion to increase of flavone concentration): increased
